According to article PMC10147936, “Dietary factors potentially impacting thiaminase I-mediated thiamine deficiency” (Scientific Reports, 2023):

Molecular target: T1, thiaminase I from C. botulinum (BcmE) (Clostridium botulinum, UniProt A5HZW3)
T1 construct: gene CBO0770
Assay: biochemical

T1 sequence (A5HZW3 1-404): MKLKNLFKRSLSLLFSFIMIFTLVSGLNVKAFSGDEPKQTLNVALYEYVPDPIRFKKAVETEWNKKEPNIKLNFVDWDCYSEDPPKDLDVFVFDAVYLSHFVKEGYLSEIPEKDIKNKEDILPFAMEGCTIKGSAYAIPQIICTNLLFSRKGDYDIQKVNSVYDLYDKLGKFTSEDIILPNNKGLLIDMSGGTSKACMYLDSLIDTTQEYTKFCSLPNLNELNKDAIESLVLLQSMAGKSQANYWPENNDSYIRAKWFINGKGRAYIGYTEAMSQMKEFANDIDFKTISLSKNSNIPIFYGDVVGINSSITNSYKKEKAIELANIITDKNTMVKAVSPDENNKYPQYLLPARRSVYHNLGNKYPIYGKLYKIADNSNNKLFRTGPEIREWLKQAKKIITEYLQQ

Q: For `O=C1O[C@H]([C@@H](O)CO)C(O)=C1O` [ascorbic acid], which IC50 is on record?
A: 266 nM
